The results in this text go back to patent US20230339886A1 (University of Florida Research Foundation, Incorporated, priority 2020, published 2023).

For the first assay, the target named is T1, REV-ERBα LBD (human; residues 281-614 Δ324-422) (Homo sapiens, UniProt P20393, DEL324-422).
T1 construct: 6×Histag-REV-ERBα LBD (human; residues 281-614 Δ324-422); made in house; host or cells: Escherichia coli
T1 sequence (P20393 with tags, fused parts or gaps DEL324-422): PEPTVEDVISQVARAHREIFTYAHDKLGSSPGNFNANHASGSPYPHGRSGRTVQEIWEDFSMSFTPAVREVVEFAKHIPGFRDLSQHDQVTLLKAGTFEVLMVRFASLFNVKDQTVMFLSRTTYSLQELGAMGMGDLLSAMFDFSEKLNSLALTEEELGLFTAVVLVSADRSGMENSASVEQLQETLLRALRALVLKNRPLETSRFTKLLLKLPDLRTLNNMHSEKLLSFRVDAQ
T1 sequence (Q9Y618 2335-2356 partner limits assumed): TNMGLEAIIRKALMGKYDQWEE
Nature of the assay: TR-FRET corepressor interaction assay (REV-ERBα LBD, FITC-SMRT peptide). Format: biochemical. The following applies: FITC-SMRT peptide, read-out: REVERBα agonism (EC50 class, FRET assay). The method, boiled down: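 Compound serial dilutions (in DMSO, triplicate) incubated 2 h at 4 °C; Tb donor excited at 340 nm, emission read at 495 nm and FITC acceptor at 520 nm. TR-FRET ratio (520/495 nm) plotted against ligand concentration and fitted to a sigmoidal dose-response curve.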
In general terms: Time-resolved FRET reads energy transfer from a long-lived donor to a nearby acceptor.
By EC50 is commonly meant the concentration that produces a half-maximal response. As to `CC(C)(C)Cn1cc([C@H](NS(=O)(=O)C2CC2)C(F)(F)F)c2cc(F)c(-c3cccc4c3CCCC4)cc21` [Example 477, N-[(1S)-1-[1-(2,2-dimethylpropyl)-5-fluoro-6-tetralin-5-yl-indol-3-yl]-2,2,2-trifluoro-ethyl]cyclopropanesulfonamide], the EC50 lay in the range of 500 to 3000 nM.

As for `CC(C)(C)Cc1cn(CCNS(=O)(=O)C2CC2)c2ccc(-c3ccc(C(F)(F)F)cc3C#N)cc12` [Example 487, N-(2-(5-(2-cyano-4-(trifluoromethyl)phenyl)-3-neopentyl-1H-indol-1-yl)ethyl)cyclopropanesulfonamide], the EC50 lay in the range of 500 to 3000 nM.

As for `CC(C)(C)Cn1cc([C@H](NS(=O)(=O)C2CC2)C(F)(F)F)c2ccc(-c3ncccc3Cl)cc21` [Example 467, (S)—N-(1-(6-(3-chloropyridin-2-yl)-1-neopentyl-1H-indol-3-yl)-2,2,2-trifluoroethyl)cyclopropanesulfonamide], the EC50 is 500 to 3000 nM.

Take `CC(C)(C)Cn1cc([C@H](NS(=O)(=O)C2CC2)C(F)(F)F)c2ccc(-c3ccc(F)cc3C#N)cc21` [Example 472, (S)—N-(1-(6-(2-cyano-4-fluorophenyl)-1-neopentyl-1H-indol-3-yl)-2,2,2-trifluoroethyl)cyclopropanesulfonamide]: the EC50 is less than 500 nM.

For the compound `CC(C)(C)Cn1cc(CCNS(=O)(=O)C2CC2)c2ccc(-c3cccc(C#N)c3Cl)cc21` [Example 486, N-(2-(6-(2-chloro-3-cyanophenyl)-1-neopentyl-1H-indol-3-yl)ethyl)cyclopropanesulfonamide], the EC50 lay within 500 to 3000 nM.

With `CC(C)(C)Cn1cc([C@H](NS(=O)(=O)C2CCC2)C(F)(F)F)c2cc(F)c(-c3ncccc3C(F)(F)F)cc21` [Example 444, (S)—N-(2,2,2-trifluoro-1-(5-fluoro-1-neopentyl-6-(3-(trifluoromethyl)pyridin-2-yl)-1H-indol-3-yl)ethyl)cyclobutanesulfonamide], the EC50 was less than 500 nM.

With `CC(C)(C)Cn1cc([C@H](NS(=O)(=O)C2CC2)C(=O)O)c2ccc(-c3ccccc3C(F)(F)F)cc21` [Example 431, (S)-2-(cyclopropanesulfonamido)-2-(1-neopentyl-6-(2-(trifluoromethyl)phenyl)-1H-indol-3-yl)acetic acid], the EC50 is more than 3000 nM.

On to `[2H][C@](NS(=O)(=O)C1CC1)(c1cn(CC(C)(C)C)c2cc(-c3ccccc3C(F)(F)F)ccc12)C(F)F` [Example 550, (S)—N-(2,2-difluoro-1-(1-neopentyl-6-(2-(trifluoromethyl)phenyl)-1H-indol-3-yl)ethyl-1-d)cyclopropanesulfonamide], for which the half-maximal effective concentration (EC50) was less than 500 nM.

Consider `CC(C)(C)Cn1cc(C(NS(=O)(=O)C2CCC2)C2CC2)c2ccc(-c3ccccc3C(F)(F)F)cc21` (stereo not shown) [Example 424, N-(cyclopropyl(1-neopentyl-6-(2-(trifluoromethyl)phenyl)-1H-indol-3-yl)methyl)cyclobutanesulfonamide], for which the EC50 was less than 500 nM.

As to `CC(C)(C)Cn1cc(CCNS(=O)(=O)C2CC2)c2ccc(-c3cc(C(F)(F)F)ccc3Cl)cc21` [Example 484, N-(2-(6-(2-chloro-5-(trifluoromethyl)phenyl)-1-neopentyl-1H-indol-3-yl)ethyl)cyclopropanesulfonamide], the EC50 is less than 500 nM.

As for `CC1(Cn2cc([C@H](NS(=O)(=O)C3CCC3)C(F)(F)F)c3ccc(-c4ccccc4C(F)(F)F)cc32)CC1` [Example 512, (S)—N-(2,2,2-trifluoro-1-(1-((1-methylcyclopropyl)methyl)-6-(2-(trifluoromethyl)phenyl)-1H-indol-3-yl)ethyl)cyclobutanesulfonamide], the EC50 is less than 500 nM.

With `CC(C)(C)Cn1cc([C@H](NS(=O)(=O)C2CC(F)C2)C(F)(F)F)c2ccc(-c3ccccc3C(F)(F)F)cc21` (stereo partly drawn) [Example 437, (S)-3-fluoro-N-(2,2,2-trifluoro-1-(1-neopentyl-6-(2-(trifluoromethyl)phenyl)-1H-indol-3-yl)ethyl)cyclobutane-1-sulfonamide], the EC50 is 500 to 3000 nM.

Turning to `CC(C)(C)Cn1cc([C@H](NS(=O)(=O)C2CCC2)C(F)(F)F)c2cc(F)c(-c3cnccc3C#N)cc21` [Example 441, (S)—N-(1-(6-(4-cyanopyridin-3-yl)-5-fluoro-1-neopentyl-1H-indol-3-yl)-2,2,2-trifluoroethyl)cyclobutanesulfonamide], the EC50 is less than 500 nM.

The assay is the same for the next values; noted with them: Table 2, read-out: REVERBα agonism (EC50 class, FRET assay).
For `CC(C)Cn1cc(CCNS(=O)(=O)N(C)C)c2ccc(O)cc21` [Example 116, N-{2-[6-hydroxy-1-(2-methylpropyl)-1H-indol-3-yl]ethyl}-N,N-dimethylsulfuric diamide], the EC50 is more than 3000 nM.

For `COc1cc(-c2ccc3c(CCNS(=O)(=O)N(C)C)cn(CC(C)C)c3c2)ccn1` [Compound 19], the EC50 was in the range of 500 to 3000 nM.

As for `CC(C)Cn1cc(CCNS(=O)(=O)N(C)C)c2ccc(NC(=O)c3ccccc3)cc21` [Compound 71], the EC50 was more than 3000 nM.

On to `CC(C)(C)Cc1cn(CCNS(=O)(=O)C2CC2)c2ccc(-c3ccc(Cl)cc3C#N)cc12` [Example 401, N-(2-(5-(4-chloro-2-cyanophenyl)-3-neopentyl-1H-indol-1-yl)ethyl)cyclopropanesulfonamide], for which the half-maximal effective concentration (EC50) is less than 500 nM.

With `CN(C)C(=O)Cn1cc(CCNS(=O)(=O)N(C)C)c2ccc(Br)cc21` [Example 167, 2-(6-bromo-3-(2-((N,N-dimethylsulfamoyl)amino)ethyl)-1H-indol-1-yl)-N,N-dimethylacetamide], the EC50 lay in the range of 500 to 3000 nM.

With `CC(C)Cn1cc([C@H](NS(=O)(=O)C2CC2)C(F)(F)F)c2ccc(-c3ccc(F)cc3C(F)(F)F)cc21` [Example 324, (S)—N-(2,2,2-trifluoro-1-(6-(4-fluoro-2-(trifluoromethyl)phenyl)-1-isobutyl-1H-indol-3-yl)ethyl)cyclopropanesulfonamide], the 50% effective concentration (EC50) is less than 500 nM.

With `CC(C)(C)Cn1cc(CCNS(=O)(=O)C2CC2)c2ccc(-c3ccc(F)cc3C(F)(F)F)cc21` [Example 395, N-(2-(6-(4-fluoro-2-(trifluoromethyl)phenyl)-1-neopentyl-1H-indol-3-yl)ethyl)cyclopropanesulfonamide], the EC50 was less than 500 nM.

Consider `CC(C)Cn1cc(CCNS(=O)(=O)N(C)C)c2ccc(C3CCN(C(=O)OC(C)(C)C)CC3)cc21` [Compound 101, tert-butyl 4-(3-{2-[(dimethylsulfamoyl)amino]ethyl}-1-(2-methylpropyl)-1H-indol-6-yl)piperidine-1-carboxylate], for which the EC50 fell in the range of 500 to 3000 nM.

For `CC(C)(C)Cc1cn(CCNS(=O)(=O)C2CC2)c2ccc(-c3ccc4ccccc4c3)cc12` [Example 210, N-(2-(5-(naphthalen-2-yl)-3-neopentyl-1H-indol-1-yl)ethyl)cyclopropane-sulfonamide], the EC50 lay in the range of 500 to 3000 nM.

Take `CC(C)Cn1cc([C@H](NS(=O)(=O)C2CC2)C(F)(F)F)c2ccc(Cl)cc21` [Example 341, (S)—N-(1-(6-chloro-1-isobutyl-1H-indol-3-yl)-2,2,2-trifluoroethyl)cyclopropanesulfonamide]: the EC50 was less than 500 nM.

Consider `Cc1cc2c(cc1F)c(CCNS(=O)(=O)N(C)C)cn2CC(C)C` [Example 170, ({2-[5-fluoro-6-methyl-1-(2-methylpropyl)-1H-indol-3-yl]ethyl}sulfamoyl)dimethylamine], for which the EC50 was less than 500 nM.

As for `CN(C)S(=O)(=O)NCCn1cc(CC(C)(C)C)c2cc(-c3ccncc3)ccc21` [Example 189, N-{2-[5-(pyridin-4-yl)-3-(2,2-dimethylpropyl)-1H-indol-1-yl]ethyl}-N,N-dimethylsulfuric diamide], the EC50 is less than 500 nM.

Consider `CC(C)Cn1cc(CNS(=O)(=O)C(C)C)c2cc(F)c(-c3ccccc3)cc21` [Compound 266], for which the EC50 is less than 500 nM.

As to `CC(C)Cn1cc(CCNS(=O)(=O)N(C)C)c2ccc(-c3ccccc3-c3ccccc3)cc21` [Example 74, N-{2-[6-[(1,1-diphenyl)-2yl]-1-(2-methylpropyl)-1H-indol-3-yl]ethyl}-N,N-dimethylsulfuric diamide], the EC50 was more than 3000 nM.

On to `CC(C)Cn1cc([C@H](NS(=O)(=O)C2CC2)C(F)(F)F)c2cc(F)c(-c3ccccc3Cl)cc21` [Example 314, (S)—N-(1-(6-(2-chlorophenyl)-5-fluoro-1-isobutyl-1H-indol-3-yl)-2,2,2-trifluoroethyl)cyclopropanesulfonamide], for which the EC50 is less than 500 nM.

On to `CN(C)S(=O)(=O)NCCn1cc(CC(C)(C)C)c2cc(-c3ccccc3Cl)ccc21` [Example 190, N-{2-[5-(2-chlorophenyl)-3-(2,2-dimethylpropyl)-1H-indol-1-yl]ethyl}-N,N-dimethyl-sulfuric diamide], for which the EC50 was less than 500 nM.

With `CC(C)Cn1cc(CCNS(=O)(=O)N(C)C)c2cc(Br)ccc21` [Example 135, ({2-[5-bromo-1-(2-methylpropyl)-1H-indol-3-yl]ethyl}sulfamoyl)dimethylamine], the EC50 was less than 500 nM.

On to `CN(C)S(=O)(=O)NCCc1cn(CC2CCOC2)c2cc(-c3ccncc3)ccc12` (stereo not shown) [Compound 9], for which the EC50 lay in the range of 500 to 3000 nM.

Take `CC(C)Cn1cc(CCNS(=O)(=O)N(C)C)c2c(Br)cccc21` [Example 136, ({2-[4-bromo-1-(2-methylpropyl)-1H-indol-3-yl]ethyl}sulfamoyl)dimethylamine]: the EC50 lay within 500 to 3000 nM.

Turning to `CC(C)C(=O)n1cc(CCNS(=O)(=O)N(C)C)c2ccc(-c3ccncc3)cc21` [Compound 43, 1-(3-{2-[(dimethylsulfamoyl)amino]ethyl}-6-(pyridin-4-yl)-1H-indol-1-yl)-2-methylpropan-1-one], the EC50 was less than 500 nM.

Consider `CC(C)Cn1cc(CCNS(=O)(=O)N(C)C)c2cc(F)c(-c3ccncc3)cc21` [Example 176, ({2-[5-fluoro-1-(2-methylpropyl)-6-(pyridin-4-yl)-1H-indol-3-yl]ethyl}sulfamoyl)dimethylamine], for which the EC50 was less than 500 nM.
